The values below come from PubChem BioAssay (NCI).

Each structure is given as a SMILES string.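 The compound was tested at five concentrations on cells cultured in 96-well plates, with a 48-hour exposure period. TGI: total growth inhibition.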

Holding throughout (experiment): NCI anticancer screen, dose series, 48 h
Assay [1] concerns LOX IMVI melanoma.
Assay [2] has as its system A549 NSCLC.
Assay [3] relates to K-562 leukemia.
The test system of assay [4] is HOP-62 NSCLC.
For assay [5], the system named is SR leukemia.
In assay [6] the test system is CAKI-1 renal.
The test system of assay [7] is COLO 205 colon.
Assay [8] has as its system UO-31 renal.
The test system of assay [9] is SK-MEL-5 melanoma.
Assay [10] deals with KM20L2 colon.
In assay [11] the test system is LXFL 529 NSCLC.
The subject of assay [12] is XF 498 CNS.
In assay [13] the test system is DMS 273 small cell lung.
Assay [14] concerns HL-60(TB) leukemia.
For assay [15], the system named is MDA-MB-435.
Assay [16] concerns BT-549 breast.
For assay [17], the system named is MDA-MB-231 breast.
The subject of assay [18] is MCF7 breast.
Assay [19] deals with MALME-3M melanoma.
Assay [20] relates to NCI/ADR-RES ovarian.

Take `Cc1ccccc1NC(=O)C(=O)C(C1OC(=O)c2ccccc21)[N+](=O)[O-]` (stereo not given): the TGI in assay [1], in assay [2], in [3], in assay [4], in assay [5] and in [6] was > 100 µM each time. The TGI in [7], in assay [8], in assay [9], in assay [10], in assay [11] and in assay [12] was > 100 µM in each case. Further, the TGI in assay [13] and in assay [14] was > 100 µM each time.

`NCC(=O)N[C@H]1c2ccsc2/C(=N/O)[C@H]1O`: the TGI in assay [1], in assay [2], in assay [15], in assay [3], in assay [16] and in assay [4] was > 100 µM each time. Moreover, the TGI in assay [5], in [17], in [6], in [7], in [8] and in assay [9] was > 100 µM each time. Also, the TGI in assay [18], in assay [19], in assay [14] and in [20] was > 100 µM throughout.

For `CC1OC1C(=O)P(=O)(O)O` (stereo not given), the TGI in assay [1], in assay [2], in [15], in assay [3], in assay [16] and in assay [4] was > 100 µM each time. In addition, the TGI in assay [5], in assay [17], in assay [6], in [7], in assay [8] and in assay [9] was > 100 µM in each case. The TGI in [18], in [14] and in [20] was > 100 µM throughout.

Regarding `CCOC(=O)c1ccc(N2C(=O)/C(=C/c3ccc(N(CCC#N)CCC#N)cc3)N=C2c2cc([N+](=O)[O-])ccc2Cl)cc1`, the TGI in assay [1], in [2], in assay [3], in [4], in assay [5] and in assay [6] was > 100 µM in each case. For the same compound, the TGI in assay [7], in [8], in assay [9], in assay [10], in [11] and in assay [19] was > 100 µM in each case. Moreover, in assay [13], the TGI is > 100 µM.

Regarding `COC1CCC(O)C(CO)O1` (stereo not given), the TGI is 65.4 µM in assay [1]; > 100 µM in [2]; 47.6 µM in [3]; > 100 µM in assay [4]; > 100 µM in [5]; > 100 µM in [8]. Besides, the TGI in assay [9] was > 100 µM; in assay [10] it was > 100 µM; in assay [11] it was > 100 µM; in [19] it was 65.3 µM; in assay [12], > 100 µM; in assay [14], 87 µM.
